The text below walks through data of US20210113617A1, “METHODS AND COMPOSITIONS FOR TH9 CELL MEDIATED CANCER TREATMENT” (Wake Forest University Health Sciences, priority 2018, published 2021).

One test deals with OT-II-Th9 cells. Put plainly: QNZ on restimulated OT-II-Th9 cells (CFSE dilution, cell yield, Annexin V/PI). It counts as cell-based, mice. Here is the method: (§1) CFSE labeling and cytotoxicity assay. In some experiments, Th cells were incubated for 5 minutes at 37° C. with 1 μM CFSE in PBS, and then washed extensively. We measured proliferation of T cells by the relative CFSE dilution method after stimulation or transfer into tumor-bearing mice. In the cytotoxicity assay, B16-OVA target cells or B16 non-target cells for OT-II T cells were labeled with 5 μM CFSE. B16-OVA target cells or B16 non-target control cells were incubated alone in triplicate with the OT-II T cells at a 1:10 effector-to-target ratio. For TRP-1 T cells, B16 target cells or MC38 non-target control cells were used. After 18 hours, CFSE^+ tumor cells from each target and control well were stained using FVD and analyzed by FACS. FVD^+ tumor cells were considered as dead cells. The percent specific lysis was calculated as (FVD^+ target−FVD^+ control)×100%.
(§2) Moreover, we further confirmed the increased proliferative capacity of Th9 cells by CFSE-dilution assay and by calculating the cell yields after the first-round activation and the subsequent reactivation (FIGS. 5G-5H).

For another test, the system named is OT-II-Th17 cells. Nature of the test: QNZ on restimulated OT-II-Th17 cells (CFSE dilution). The format is cell-based, mice. Particulars: restimulated with antigen-pulsed APCs for 2 days in presence of QNZ. Here is the method:
as §1, §2

On to `Nc1ccc2ncnc(NCCc3ccc(Oc4ccccc4)cc3)c2c1` [QNZ], for which the Th9 hyperproliferation result in the test on OT-II-Th9 cells (restimulated with OT-II peptide-pulsed APCs in presence of QNZ for 48 hours) is “significantly arrested Th9 hyperproliferation”. Further, in the test with OT-II-Th9 cells (restimulated with antigen-pulsed APCs for 2 days in presence of QNZ), the Th9 cell apoptosis entry is given as “did not induce Th9 cell apoptosis”. The “proliferation of Th17” value with OT-II-Th17 cells is on record as “minimal effect”.
